{"source": "patent US20220409620A1", "about": "“REDUCING IMMUNOGENICITY TO PEGLOTICASE” (Horizon Pharma Rheumatology LLC, priority 2016, published 2022)", "system": "adult patients with uncontrolled gout", "assay": "Serum uric acid (sUA) levels and sUA responder rate, open-label study of pegloticase with MTX (MIRROR OL)", "type": "in vivo, human", "conditions": "mITT Population", "description": "The primary objective is to estimate the response rate during Month 6 (Weeks 20, 22, and 24), as measured by the sustained normalization of serum uric acid (SUA) to <6 mg/dL for at least 80% of the time during Month 6 in subjects receiving KXX with MTX.\nThe primary efficacy outcome endpoint is the sustained normalization of SUA to <6 mg/dL for at least 80% of the time during month 6 (weeks 20, 22, and 24) in subjects receiving KXX with MTX. […] Participants who achieve this endpoint were classified as “responders.” Serum uric acid (SUA) responders may also be defined as participants achieving and maintaining SUA <6 mg/dL for at least 80% of the time during Month 6 (Weeks 20, 22, and 24).\nBlood samples may be collected prior to each pegloticase infusion for measurement of SUA levels using the Beckman Coulter AU System Uric Acid procedure. Participants were declared “non-responders” if there were SUA measures >6 mg/dL at 2 consecutive study visits beginning with the week 2 visit. […] This assumption and subsequent discontinuation of pegloticase was consistent with the protocol of large phase III randomized controlled trials and the product label. A formal stopping rule was 2 occasions of SUA levels of greater than 6 mg/dL.\nClinical Chemistry—Blood samples were collected prior to each pegloticase infusion for measurement of SUA levels (primary efficacy parameter) using the Beckman Coulter AU System Uric Acid procedure. In this procedure uric acid is converted to hydrogen peroxide. Hydrogen peroxide reacts with reagent to produce a chromophore which is read bichromatically at 660/800 nm. The amount of dye formed is proportional to the uric acid concentration in the sample.\nSerum samples for measurement of SUA levels were collected at the Screening Visit, the Week −4 Visit (prior to the first dose of MTX), and the Week −2 Visit during the MTX Run-in Period; within 48 hours prior to each pegloticase infusion and after the end of each pegloticase infusion prior to discharge from the site during the Pegloticase+IMM Period; at the non-infusion Week 52/End of Study/Early Termination Visits and at the Post Treatment 3 and 6 Month Follow-up Visits. Additional serum samples for SUA levels were collected at optional non-infusion (Frequent Sampling) Visits at Weeks 1 and 7. […] Subjects with SUA level >6 mg/dL at 2 consecutive visits beginning at Week 2 visit discontinued treatment, completed the End of Pegloticase Infusion Visit procedures within 2 weeks and continued the subject visits according to the protocol (without treatment).\nEfficacy analyses were performed using the modified intention-to-treat (mITT) population, defined as all enrolled subjects who received ≥1 dose of pegloticase. The proportion of Month 6 responders was summarized, along with a 95% confidence interval for the proportion. The proportion of Month 3 and overall (Months 3 and 6 combined) responders was analyzed similarly.\nA subject was declared a non-responder if the subject had SUA level >6 mg/dL at 2 consecutive study visits beginning with the Week 2 Visit. In addition, a subject who withdraws from study treatment for any reason after the first dose of pegloticase in the KXX+MTX Period and prior to Month 6 (for the primary endpoint) or Month 3 (for the secondary endpoint) was considered a non-responder if SUA values were not collected at the planned time points.\nPatients were administered oral MTX (15 mg/week) and folate (1 mg/day) 4 weeks prior to the first pegloticase infusion (Day 1) and throughout the pegloticase treatment period. Blood was drawn prior to each infusion to measure sUA level, monitor clinical parameters, and examine for ADA development. All patients followed typical IR prophylaxis protocols (fexofenadine one day before and the morning of each infusion and acetaminophen and IV corticosteroid the morning of each infusion).", "data": [{"substance": "pegloticase", "values": [{"measurement": "Serum Uric Acid, Observed, Mean (SD)", "setting": "Week 34 - Pre-Infusion", "value": "0.82 (1.046) mg/dL"}, {"measurement": "Serum Uric Acid, Observed, Median", "setting": "Week 34 - Pre-Infusion", "value": 0.30, "unit": "mg/dL"}, {"measurement": "sUA <6 mg/dL, n (%)", "setting": "Week 34 - Pre-Infusion", "value": "10 (100%)"}, {"measurement": "Serum Uric Acid, Change from Baseline, Mean (SD)", "setting": "Week 36 - Post-Infusion", "value": "−9.38 (3.799) mg/dL"}, {"measurement": "Serum Uric Acid, Change from Baseline, Median", "setting": "Week 36 - Post-Infusion", "value": -9.20, "unit": "mg/dL"}, {"measurement": "Serum Uric Acid, Observed, Mean (SD)", "setting": "Week 36 - Post-Infusion", "value": "0.30 (0.000) mg/dL"}, {"measurement": "Serum Uric Acid, Observed, Median", "setting": "Week 36 - Post-Infusion", "value": 0.30, "unit": "mg/dL"}, {"measurement": "sUA <6 mg/dL, n (%)", "setting": "Week 36 - Post-Infusion", "value": "6 (100%)"}, {"measurement": "Serum Uric Acid, Change from Baseline, Mean (SD)", "setting": "Week 36 - Pre-Infusion", "value": "−7.90 (4.094) mg/dL"}, {"measurement": "Serum Uric Acid, Change from Baseline, Median", "setting": "Week 36 - Pre-Infusion", "value": -8.60, "unit": "mg/dL"}, {"measurement": "Serum Uric Acid, Observed, Mean (SD)", "setting": "Week 36 - Pre-Infusion", "value": "1.58 (2.425) mg/dL"}, {"measurement": "Serum Uric Acid, Observed, Median", "setting": "Week 36 - Pre-Infusion", "value": 0.30, "unit": "mg/dL"}, {"measurement": "sUA <6 mg/dL, n (%)", "setting": "Week 36 - Pre-Infusion", "value": "8 (88.9%)"}, {"measurement": "Serum Uric Acid, Change from Baseline, Mean (SD)", "setting": "Week 38 - Pre-Infusion", "value": "−8.41 (5.229) mg/dL"}, {"measurement": "Serum Uric Acid, Change from Baseline, Median", "setting": "Week 38 - Pre-Infusion", "value": -8.60, "unit": "mg/dL"}, {"measurement": "Serum Uric Acid, Observed, Mean (SD)", "setting": "Week 38 - Pre-Infusion", "value": "0.93 (1.583) mg/dL"}, {"measurement": "Serum Uric Acid, Observed, Median", "setting": "Week 38 - Pre-Infusion", "value": 0.30, "unit": "mg/dL"}, {"measurement": "sUA <6 mg/dL, n (%)", "setting": "Week 38 - Pre-Infusion", "value": "5 (100%)"}, {"measurement": "Serum Uric Acid, Change from Baseline, Mean (SD)", "setting": "Week 40 - Pre-Infusion", "value": "−11.30 (3.686) mg/dL"}, {"measurement": "Serum Uric Acid, Change from Baseline, Median", "setting": "Week 40 - Pre-Infusion", "value": -9.80, "unit": "mg/dL"}, {"measurement": "Serum Uric Acid, Observed, Mean (SD)", "setting": "Week 40 - Pre-Infusion", "value": "0.30 (0.000) mg/dL"}, {"measurement": "Serum Uric Acid, Observed, Median", "setting": "Week 40 - Pre-Infusion", "value": 0.30, "unit": "mg/dL"}, {"measurement": "sUA <6 mg/dL, n (%)", "setting": "Week 40 - Pre-Infusion", "value": "3 (100%)"}, {"measurement": "Serum Uric Acid, Change from Baseline, Mean (SD)", "setting": "Week 42 - Pre-Infusion", "value": "−11.30 (3.686) mg/dL"}, {"measurement": "Serum Uric Acid, Change from Baseline, Median", "setting": "Week 42 - Pre-Infusion", "value": -9.80, "unit": "mg/dL"}, {"measurement": "Serum Uric Acid, Observed, Mean (SD)", "setting": "Week 42 - Pre-Infusion", "value": "0.30 (0.000) mg/dL"}, {"measurement": "Serum Uric Acid, Observed, Median", "setting": "Week 42 - Pre-Infusion", "value": 0.30, "unit": "mg/dL"}, {"measurement": "sUA <6 mg/dL, n (%)", "setting": "Week 42 - Pre-Infusion", "value": "3 (100%)"}, {"measurement": "Serum Uric Acid, Change from Baseline, Mean (SD)", "setting": "Week 44 - Pre-Infusion", "value": "−10.55 (4.625) mg/dL"}, {"measurement": "Serum Uric Acid, Change from Baseline, Median", "setting": "Week 44 - Pre-Infusion", "value": -9.80, "unit": "mg/dL"}, {"measurement": "Serum Uric Acid, Observed, Mean (SD)", "setting": "Week 44 - Pre-Infusion", "value": "1.05 (1.305) mg/dL"}, {"measurement": "Serum Uric Acid, Observed, Median", "setting": "Week 44 - Pre-Infusion", "value": 0.30, "unit": "mg/dL"}, {"measurement": "sUA <6 mg/dL, n (%)", "setting": "Week 44 - Pre-Infusion", "value": "3 (100%)"}, {"measurement": "Serum Uric Acid, Change from Baseline, Mean (SD)", "setting": "Week 46 - Pre-Infusion", "value": "−12.65 (4.031) mg/dL"}, {"measurement": "Serum Uric Acid, Change from Baseline, Median", "setting": "Week 46 - Pre-Infusion", "value": -12.65, "unit": "mg/dL"}, {"measurement": "Serum Uric Acid, Observed, Mean (SD)", "setting": "Week 46 - Pre-Infusion", "value": "0.30 (0.000) mg/dL"}, {"measurement": "Serum Uric Acid, Observed, Median", "setting": "Week 46 - Pre-Infusion", "value": 0.30, "unit": "mg/dL"}, {"measurement": "sUA <6 mg/dL, n (%)", "setting": "Week 46 - Pre-Infusion", "value": "2 (100%)"}, {"measurement": "Serum Uric Acid, Change from Baseline, Mean (SD)", "setting": "Week 48 - Post-Infusion", "value": "−10.33 (4.922) mg/dL"}, {"measurement": "Serum Uric Acid, Change from Baseline, Median", "setting": "Week 48 - Post-Infusion", "value": -9.80, "unit": "mg/dL"}, {"measurement": "Serum Uric Acid, Observed, Mean (SD)", "setting": "Week 48 - Post-Infusion", "value": "1.60 (2.252) mg/dL"}, {"measurement": "Serum Uric Acid, Observed, Median", "setting": "Week 48 - Post-Infusion", "value": 0.30, "unit": "mg/dL"}, {"measurement": "sUA <6 mg/dL, n (%)", "setting": "Week 48 - Post-Infusion", "value": "3 (100%)"}, {"measurement": "Serum Uric Acid, Change from Baseline, Mean (SD)", "setting": "Week 48 - Pre-Infusion", "value": "−12.65 (4.031) mg/dL"}, {"measurement": "Serum Uric Acid, Change from Baseline, Median", "setting": "Week 48 - Pre-Infusion", "value": -12.65, "unit": "mg/dL"}, {"measurement": "Serum Uric Acid, Observed, Mean (SD)", "setting": "Week 48 - Pre-Infusion", "value": "0.30 (0.000) mg/dL"}, {"measurement": "Serum Uric Acid, Observed, Median", "setting": "Week 48 - Pre-Infusion", "value": 0.30, "unit": "mg/dL"}, {"measurement": "sUA <6 mg/dL, n (%)", "setting": "Week 48 - Pre-Infusion", "value": "2 (100%)"}, {"measurement": "Serum Uric Acid, Change from Baseline, Mean (SD)", "setting": "Week 50 - Post-Infusion", "value": "−10.57 (4.598) mg/dL"}, {"measurement": "Serum Uric Acid, Change from Baseline, Median", "setting": "Week 50 - Post-Infusion", "value": -9.80, "unit": "mg/dL"}, {"measurement": "Serum Uric Acid, Observed, Mean (SD)", "setting": "Week 50 - Post-Infusion", "value": "1.37 (1.848) mg/dL"}, {"measurement": "Serum Uric Acid, Observed, Median", "setting": "Week 50 - Post-Infusion", "value": 0.30, "unit": "mg/dL"}, {"measurement": "sUA <6 mg/dL, n (%)", "setting": "Week 50 - Post-Infusion", "value": "3 (100%)"}, {"measurement": "Serum Uric Acid, Change from Baseline, Mean (SD)", "setting": "Week 50 - Pre-Infusion", "value": "−12.65 (4.031) mg/dL"}, {"measurement": "Serum Uric Acid, Change from Baseline, Median", "setting": "Week 50 - Pre-Infusion", "value": -12.65, "unit": "mg/dL"}, {"measurement": "Serum Uric Acid, Observed, Mean (SD)", "setting": "Week 50 - Pre-Infusion", "value": "0.30 (0.000) mg/dL"}, {"measurement": "Serum Uric Acid, Observed, Median", "setting": "Week 50 - Pre-Infusion", "value": 0.30, "unit": "mg/dL"}, {"measurement": "sUA <6 mg/dL, n (%)", "setting": "Week 50 - Pre-Infusion", "value": "2 (100%)"}, {"measurement": "Serum Uric Acid, Change from Baseline, Mean (SD)", "setting": "Week 52/ET", "value": "−12.65 (4.031) mg/dL"}, {"measurement": "Serum Uric Acid, Change from Baseline, Median", "setting": "Week 52/ET", "value": -12.65, "unit": "mg/dL"}, {"measurement": "Serum Uric Acid, Observed, Mean (SD)", "setting": "Week 52/ET", "value": "0.30 (0.000) mg/dL"}, {"measurement": "Serum Uric Acid, Observed, Median", "setting": "Week 52/ET", "value": 0.30, "unit": "mg/dL"}, {"measurement": "sUA <6 mg/dL, n (%)", "setting": "Week 52/ET", "value": "2 (100%)"}]}]}
